The text below walks through data of patent publication US20040191240A1, “Composition and method for nerve regeneration” (priority 2003, published 2004).

The subject of test [1] is N1E-115 cells. The experiment in a line: Growth, cyclin D3 and pRb in N1E-115 cells. Format: cell-based. As to conditions: for phosphorylation state of pRb / protein level of cyclin D3: Western blot; for growth of N1E-115 cells: after transfection. The procedure: (§1) NIH3T3 cells, N1E-115 cells and 293T cells were maintained in DMEM containing 10% fetal bovine serum. Lipofectamine 2000 (Invitrogen) was used for transfection. For the stress fiber formation assay, NIH3T3 cells were cultured in serum-free medium for 16 hours after transfection. Stress fiber formation was evoked by incubating the cells with 10% serum for 10 minutes. Hippocampal neurons were prepared from […], as previously described (Neumann, H. et al., Science. 269:549-552, 1995). Briefly, hippocampi were dissected and the meninges removed. The trimmed tissue was dissociated by trituration. The dissociated cells were plated on dishes pre-coated with poly-L-lysine (Sigma), and cultured in DMEM containing 10% fetal bovine serum for 24 hours. Then, the medium was replaced with DMEM with B27 supplement (Invitrogen), and the cells were transfected with GFP or GFP-ΔNLS-p21. Neuronal morphology was estimated at 24 hours after the transfection.
(In western blotting, separated proteins are transferred to a membrane and probed.)

The target in test [2] is T1, myc-Rho-kinase (Bos taurus, UniProt Q28021). Put plainly: Rho-kinase kinase assay with lysates of transfected 293T cells. Format: cell-based. The procedure: Cells were lysed with lysis buffer (50 mM Tris-HCl (pH 7.5), 150 mM NaCl, 10% glycerol, 1% Nonidet-P40 and protease inhibitor cocktail). The kinase assay was carried out using the lysates.
Test [3] relates to N1E-115 cells. The experiment in a line: Morphological analysis of N1E-115 cells. The format is cell-based. As to conditions: for cell population with long neurites / neurite formation: transfection, 48 h, Y-27632 10 μM for 30 minutes. As for the experimental part: N1E-115 cells were transfected with GFP, GFP-full-p21 or GFP-ΔNLS-p21, and cultured in serum-starved condition for 5 hours. Then, the medium was replaced with DMEM containing 10% fetal bovine serum. The cells were fixed at 48 hours after transfection. The morphology of the cells was categorized into 3 groups; neurite positive cells, round cells and the other cells. The cells with longer neurites than their soma were defined as neurite positive cells. The other cells had various features including microspikes, ruffles and a flattened appearance.

Test [4] deals with T2, association of p75 with Rho GDI (Homo sapiens, UniProt P08138).
T2 construct: host or cells: 293T (p75)
T2 sequence (P08138 29-427): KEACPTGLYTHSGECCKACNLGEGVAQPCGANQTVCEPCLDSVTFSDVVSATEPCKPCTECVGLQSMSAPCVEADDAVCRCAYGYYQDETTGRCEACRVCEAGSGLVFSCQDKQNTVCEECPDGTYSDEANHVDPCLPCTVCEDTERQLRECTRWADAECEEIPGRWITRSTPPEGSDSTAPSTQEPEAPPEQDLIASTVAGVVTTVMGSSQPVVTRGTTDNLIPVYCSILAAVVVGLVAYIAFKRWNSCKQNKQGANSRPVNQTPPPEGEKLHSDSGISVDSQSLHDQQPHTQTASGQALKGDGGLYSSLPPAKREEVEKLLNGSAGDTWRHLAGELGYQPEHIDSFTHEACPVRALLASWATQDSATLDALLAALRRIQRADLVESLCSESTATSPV
The experiment in a line: Co-precipitation of p75 with recombinant GST-Rho GDI or GST-RhoA. As to conditions: for direct binding of recombinant protein to p75 precipitated from transfected 293T cells: RhoA in the GDP-bound, GTP-bound or nucleotide-depleted state. Format: binding.

In test [5] the target is T3, recombinant human p75-Fc chimera (Homo sapiens, UniProt P08138).
T3 construct: Recombinant p75 extracellular domain fused to Fc purified from Sf21 cells; purchased Genzyme-Techne; host or cells: Sf21
T3 sequence (P08138 29-250 limits assumed): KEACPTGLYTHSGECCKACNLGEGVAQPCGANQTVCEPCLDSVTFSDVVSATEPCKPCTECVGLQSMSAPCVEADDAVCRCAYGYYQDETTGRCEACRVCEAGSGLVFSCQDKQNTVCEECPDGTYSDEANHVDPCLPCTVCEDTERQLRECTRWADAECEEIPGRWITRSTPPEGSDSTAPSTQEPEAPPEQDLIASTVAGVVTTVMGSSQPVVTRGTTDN
The experiment in a line: Co-precipitation of recombinant p75 and gangliosides. The format is binding. As to conditions: precipitation with protein A sepharose, Western blot. As for the experimental part:
Recombinant human p75-Fc chimera (1 μg; Genzyme-Techne) and 1 μg of purified ganglioside GT1b (>98% purity, Seikagaku Co.) were incubated in 200 μl 0.025% Tween20/PBS for 2 h, and p75 was precipitated using proteinA sepharose (Amersham Pharmacia Biotech). The resultant precipitates were electrophoretically transferred to polyvinylidene difluoride membranes after SDS-PAGE with 7% gels and were immunoblotted with anti GT1b antibody (IgM, Seikagaku Co.) or anti p75 antibody.

Test [6] concerns the target T4, interaction of p75 with Rho GDI (Homo sapiens, UniProt P08138).
T4 construct: expressed in transfected cells; host or cells: N1E-115
T4 sequence (P08138 29-427): T2 sequence (P08138 29-427)
Put plainly: Co-immunoprecipitation of p75 with Rho GDI or RhoA in transfected N1E-115 cells. Format: cell-based. As to conditions: N1E-115 cells transfected with FLAG-tagged p75; Nogo peptide 4 μM, MAG-Fc 25 μg/ml, NGF 100 ng/ml.

A further test has as its system RhoA. Put plainly: Affinity-precipitation of GTP-RhoA in cerebellar neurons. The format is cell-based, mouse. As to conditions: MAG-Fc 25 μg/ml, Nogo peptide 4 μM. As for the experimental part: 293 cells were transfected with pcDNA3 vectors containing wild type RhoA whose NH2-terminus is tagged with HA (Yamashita, T. et al., Neuron. 24:585-593, 1999) and/or full-length human p75 by lipofection using Lipofectamine 2000 (Gibco BRL). Cerebellar neurons from P9 mice were isolated as described previously (Cai et al, Neuron, 22:89-101, 1999). Cells were lysed in 50 mM Tris (pH 7.5), 1% Triton X-100, 0.5% sodium deoxycholate, 0.1% SDS, 500 mM NaCl, 10 mM MgCl2, with leupeptin and aprotinin, each at 10 μg/ml. Cell lysates were clarified by centrifugation at 13,000×g at 4° C. for 10 min, and the supernatants were incubated with the 20 μg of GST-Rho binding domain of Rhotekin beads (Upstate Biotech.) at 4° C. for 45 min. The beads were washed 4 times with washing buffer (50 mM Tris (pH 7.5) containing 1% Triton X-100, 150 mM NaCl, 10 mM MgCl2, 10 μg/ml each of leupeptin and aprotinin). Bound Rho proteins were detected by Western blotting using a monoclonal antibody against RhoA (Santa Cruz Biotechnology).
Amino-terminally FLAG-tagged human p75 or the deletion mutants of p75 ICD were cloned into pcDNA3.1 expression plasmid, and were transfected with 293T cells. […] Bound Rho proteins were detected by Western blotting using a monoclonal antibody against RhoA (Santa Cruz Biotechnology).

The test system of the next test is cerebellar neurons. Put plainly: Neurite outgrowth assay, post-natal cerebellar neurons. Format: cell-based, mouse. As to conditions: cells transfected with myc-tagged Rho GDI.
The next test concerns NIH3T3 cells. The experiment in a line: Stress fiber formation assay. Format: cell-based. As to conditions: serum-starved 16 hours, 10% serum 10 minutes. As for the experimental part:
as §1

Test [7] addresses T1, myc-Rho-kinase. Put plainly: Co-immunoprecipitation of p21 constructs and Rho-kinase in 293T cells. As to conditions: 293T cells cotransfected. Format: cell-based. As for the experimental part: 293T cells were transfected with myc-Rho-kinase in combination with GFP-full-p21 or GFP-ΔNLS-p21. At 48 hours after transfection, the cells were lysed with 1 ml of lysis buffer (50 mM Tris-HCl (pH 7.5), 150 mM NaCl, 10% glycerol, 0.5% Nonidet-P40 including protease inhibitor cocktail tablets (Roche). The cell lysates were centrifuged at 13,000×g for 20 minutes, and the supernatant was collected. Immunoprecipitations were performed for 2 hours at 4° C. using an anti-p21 mouse monoclonal antibody (Santa Cruz Biotechnology) and 0.75 ml of the supernatant. The immunocomplexes were collected with protein G-Sepharose (Amersham Pharmacia Biotech) slurry (50% v/v), washed 4 times with lysis buffer, and subjected to SDS-PAGE. They were transferred to the polyvinylidene difluoride membranes and probed with the anti-myc rabbit polyclonal antibody (Santa Cruz Biotechnology). Interaction of endogenous proteins in N1E-115 cells was assessed in the same way using anti Rho-kinase antibody.

Another test has as its system hippocampal neurons. The experiment in a line: Neurite outgrowth and branching of hippocampal neurons. The format is cell-based. As to conditions: rat E18, 24 hours after transfection. As for the experimental part:
as §1
Cultures of the hippocampal neurons from rat E18 embryos were used. […] Twenty-four hours after transfection, the cells were fixed and immunolabeled with β-tubulin III. The total neurite length per neuron, the axonal length, defined as the length of the longest neurite per neuron, the number of primary processes originating from the neuronal somata, and the number of branch points per neuron were determined (Neumann, H. et al., J. Neurosci. 22:854-862, 2002).

T1 sequence (Q28021 whole entry): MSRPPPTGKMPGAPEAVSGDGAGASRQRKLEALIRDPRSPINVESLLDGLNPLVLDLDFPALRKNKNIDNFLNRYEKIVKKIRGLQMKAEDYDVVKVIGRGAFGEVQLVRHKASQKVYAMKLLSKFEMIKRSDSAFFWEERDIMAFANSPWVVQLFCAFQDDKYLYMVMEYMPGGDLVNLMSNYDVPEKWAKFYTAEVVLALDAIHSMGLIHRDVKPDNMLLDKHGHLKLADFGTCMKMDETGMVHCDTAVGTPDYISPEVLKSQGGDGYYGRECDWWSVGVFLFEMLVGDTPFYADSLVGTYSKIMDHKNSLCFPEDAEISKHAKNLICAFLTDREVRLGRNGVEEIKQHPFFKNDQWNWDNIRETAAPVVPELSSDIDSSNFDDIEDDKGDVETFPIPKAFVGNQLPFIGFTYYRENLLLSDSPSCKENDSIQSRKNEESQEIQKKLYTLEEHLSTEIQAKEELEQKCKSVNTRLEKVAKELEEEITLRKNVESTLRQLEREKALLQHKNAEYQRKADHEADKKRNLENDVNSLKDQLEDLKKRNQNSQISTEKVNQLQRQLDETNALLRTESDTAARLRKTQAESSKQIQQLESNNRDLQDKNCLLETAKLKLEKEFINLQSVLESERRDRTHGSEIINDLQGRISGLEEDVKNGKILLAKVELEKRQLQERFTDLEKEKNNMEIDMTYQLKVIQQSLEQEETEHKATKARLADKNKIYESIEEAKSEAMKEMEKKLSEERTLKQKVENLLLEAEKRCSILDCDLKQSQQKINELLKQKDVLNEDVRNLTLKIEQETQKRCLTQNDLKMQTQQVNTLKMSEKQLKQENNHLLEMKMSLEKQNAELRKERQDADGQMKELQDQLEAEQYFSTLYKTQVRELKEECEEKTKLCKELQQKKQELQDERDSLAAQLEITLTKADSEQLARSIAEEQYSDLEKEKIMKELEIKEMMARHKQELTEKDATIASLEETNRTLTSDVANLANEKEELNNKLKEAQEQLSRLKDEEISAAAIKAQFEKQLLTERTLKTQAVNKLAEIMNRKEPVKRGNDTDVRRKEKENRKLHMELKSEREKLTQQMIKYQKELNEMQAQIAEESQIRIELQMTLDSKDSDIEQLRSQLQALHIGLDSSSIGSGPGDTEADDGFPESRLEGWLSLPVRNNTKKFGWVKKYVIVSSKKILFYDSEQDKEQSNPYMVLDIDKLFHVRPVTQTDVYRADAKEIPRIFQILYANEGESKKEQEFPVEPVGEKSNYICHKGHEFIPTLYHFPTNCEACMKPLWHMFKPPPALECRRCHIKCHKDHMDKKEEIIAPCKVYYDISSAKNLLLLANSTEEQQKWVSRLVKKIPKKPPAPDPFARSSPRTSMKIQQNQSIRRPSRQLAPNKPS

Take `C[S+](C)[O-]` [DMSO, reference compound]: in the test with N1E-115 cells [1], the “phosphorylation state of pRb” value was “hyperphosphorylated pRb became undetectable” and the “protein level of cyclin D3” value is “strongly increased”.
Turning to `C[C@@H](N)[C@H]1CC[C@H](C(=O)Nc2ccncc2)CC1` [Y-27632, reference compound], on myc-Rho-kinase [2] (HEK-293T, Y-27632 10 μM for 30 minutes, read-out: (compared to the original) inhibition of Rho-kinase activity), the inhibition at 10 µM amounted to 51.9%. Moreover, the “cell population with long neurites / neurite formation” value in the test with N1E-115 cells [3] is on record as “induced significant neurite formation”.
As for CFFRGGFFNHNPRYC [Pep5], the “association of p75 with Rho GDI” value in test [4] (1 μM GST-Rho GDI, Pep5 at the indicated concentrations) was “inhibited the association of p75 with Rho GDI dose dependently”.
As to GD1a, the “association of ganglioside with recombinant p75 extracellular domain fused to Fc” value in test [5] is “did not see any interaction”.
Same read-out and setting: next, GM1: “no interaction”; GT1b: “binds to p75 in a manner that is SDS-resistant”.
With “NGF: Nerve growth factor [reference compound]”, in test [6], the “interaction of p75 with Rho GDI and RhoA” value is “abolished the interaction of p75 with Rho GDI as well as RhoA”. In addition, the “RhoA activity in cerebellar granule neurons from wild type mice (P9)” value in the test with RhoA is “rapidly inhibits RhoA activity”.
“Rho GDI: Rho GDP dissociation inhibitor; recombinant GST-Rho GDI or myc-tagged Rho GDI over-expressed in neurons”: the “direct binding of recombinant protein to p75 precipitated from transfected 293T cells” value in test [4] is “bound to p75”. Besides, in the test on cerebellar neurons, the “inhibitory effects of MAG and the Nogo peptide on neurite outgrowth on over-expression of Rho GDI” value is recorded as “abolished these inhibitory effects”.
“RhoA: bacterially produced RhoA (GST-RhoA)”: the “direct binding of recombinant protein to p75 precipitated from transfected 293T cells” value in test [4] was “no interaction between them in any nucleotide state”.
As for “full-p21: GFP fused full length p21 (aa 1-164) expressed from pEGFP-full-p21”, in the test with N1E-115 cells [1], the “protein level of cyclin D3” value is reported as “strongly increased” and the “growth of N1E-115 cells” value is “stopped proliferation”. Further, the “formation of actin stress fibers after the addition of serum” value with NIH3T3 cells was “Extensive actin stress fibers were observed”. The “co-immunoprecipitation of myc-tagged Rho-kinase with anti-p21 antibody” value in the test with myc-Rho-kinase [7] is recorded as “only a faint signal could be detected”. Also, the “Rho-kinase activity in transfected cells” value in the test with myc-Rho-kinase [2] is recorded as “had no significant effect”. Besides, in the test with N1E-115 cells [3] (48 hours after transfection), the cell rounding result is “decreased cell rounding”. Also, the “cell population with long neurites / neurite formation” value in the test with N1E-115 cells [3] is recorded as “no increase in the cell population that had long neurites”.
With “ΔNLS-p21: GFP fused p21 with loss of nuclear localization signal (aa 1-140) expressed from pEGFP-ΔNLS-p21”, in the test on N1E-115 cells [1], the “phosphorylation state of pRb” value is recorded as “hyperphosphorylated pRb remained predominant”, the “protein level of cyclin D3” value was “no change in the expression” and the “growth of N1E-115 cells” value is reported as “proliferated until 48 hours after transfection”. The “formation of actin stress fibers after the addition of serum” value in the test with NIH3T3 cells was “had little stress fiber formation”. Further, the “co-immunoprecipitation of myc-tagged Rho-kinase with anti-p21 antibody” value with myc-Rho-kinase [7] is given as “efficiently precipitated myc-tagged Rho-kinase”. Also, the “number of primary processes” value in the test with hippocampal neurons was “no change”. Also, in the test with hippocampal neurons (control 1.3), the “number of branch points per neuron” value is reported as 2.6 (±0.3 SEM). Moreover, the “axonal length (longest neurite per neuron)” value with hippocampal neurons (control 66.3) is reported as 162.9 μm. The “total neurite length per neuron” value in the test on hippocampal neurons (control 135.9) is listed as 307.2 μm. In addition, in the test with N1E-115 cells [3] (48 hours after transfection), the “cells that extended long neurites” value is listed as “more than 45%” and the “increase of cells with long neurites compared to the control” value is 3.1 -fold.

Broadly, the inhibition is how much of the control response was suppressed.
